From patent US11584747B2, “Substituted pyridopyrimidinonyl compounds useful as T cell activators” (BRISTOL-MYERS SQUIBB COMPANY, priority 2019, dated 2023)
Like-named read-outs stand apart in the source and are kept apart here.

Assays:
human DGKα [1] = target: T1, human DGKα (Homo sapiens (Human), UniProt P23743); experiment: DGKα LIPGLO assay (extruded liposome substrate, ADP-Glo luminescence); format: biochemical; details: liposome (LIPGLO) assay; read-out: DGK alpha (liposome assay) IC50
human DGKζ = human DGKζ (Homo sapiens (Human), UniProt Q13574); experiment: DGKζ LIPGLO assay (extruded liposome substrate, ADP-Glo luminescence); format: biochemical; details: liposome (LIPGLO) assay; read-out: DGK zeta (liposome assay) IC50
[2] = system: human venous whole blood (IFN-γ); experiment: Human whole blood IFN-γ assay; format: cell-based; details: human whole blood, anti-CD3 plus anti-CD28 stimulation, 24 hours, read-out: IFN-γ Whole Blood EC50
Procedure: Human venous whole blood (22.5 μL per well), obtained from healthy donors, was pre-treated with compounds for one hour at 37° C. in a humidified 95% air/5% CO2 incubator. The blood was stimulated with 2.5 μL anti-human CD3 and anti-CD28 mAb at a final concentration of 1 μg/mL each for 24 hours at 37° C. IFN-γ in the supernatants was measured using AlphLISA kit (Cat #AL217).

whole blood (pERK) = experiment: pERK Whole Blood; format: cell-based
human DGKα [3] = target: T1, human DGKα; experiment: DGKα ADPGLO assay (detergent/lipid micelle substrate); format: biochemical; details: ADPGLO assay; read-out: DGK alpha ADPGLO IC50
Procedure: DGK Alpha ADPGLO (Truncated) IC50 (uM)
The detergent/lipid micelle was prepared by combining 15 g phosphatidylserine (Avanti 840035P) and 1 g diacylglycerol (8008110) and dissolving into 150 mL chloroform in a 2 L round bottom flask. Chloroform was removed under high vacuum by rotary evaporation. […] The lipid/detergent solution was split into 5 mL aliquots and stored at −80° C.

T1 sequence (P23743 whole entry, looked up): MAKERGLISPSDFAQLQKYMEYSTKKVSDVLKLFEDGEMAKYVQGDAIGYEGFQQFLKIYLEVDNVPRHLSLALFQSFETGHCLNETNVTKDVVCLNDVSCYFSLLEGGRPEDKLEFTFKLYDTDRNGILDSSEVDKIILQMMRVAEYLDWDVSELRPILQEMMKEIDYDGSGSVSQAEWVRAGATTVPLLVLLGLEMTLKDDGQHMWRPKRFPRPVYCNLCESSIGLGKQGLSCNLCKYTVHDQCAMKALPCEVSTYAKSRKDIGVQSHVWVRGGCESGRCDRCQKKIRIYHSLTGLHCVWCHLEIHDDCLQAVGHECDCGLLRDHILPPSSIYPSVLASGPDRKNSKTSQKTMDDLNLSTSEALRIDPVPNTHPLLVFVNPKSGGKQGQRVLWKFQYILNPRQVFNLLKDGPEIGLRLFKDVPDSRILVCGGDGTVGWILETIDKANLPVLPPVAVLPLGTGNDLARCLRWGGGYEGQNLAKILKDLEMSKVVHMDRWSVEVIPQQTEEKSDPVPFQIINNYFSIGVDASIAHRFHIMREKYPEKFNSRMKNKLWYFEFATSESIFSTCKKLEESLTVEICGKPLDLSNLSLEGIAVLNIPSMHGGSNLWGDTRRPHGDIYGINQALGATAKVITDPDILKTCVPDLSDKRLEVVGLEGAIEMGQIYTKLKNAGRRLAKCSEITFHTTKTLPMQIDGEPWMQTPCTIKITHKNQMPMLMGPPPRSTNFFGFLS
human DGKζ, sequence (Q13574 other isoform, or with tags, fused parts or gaps): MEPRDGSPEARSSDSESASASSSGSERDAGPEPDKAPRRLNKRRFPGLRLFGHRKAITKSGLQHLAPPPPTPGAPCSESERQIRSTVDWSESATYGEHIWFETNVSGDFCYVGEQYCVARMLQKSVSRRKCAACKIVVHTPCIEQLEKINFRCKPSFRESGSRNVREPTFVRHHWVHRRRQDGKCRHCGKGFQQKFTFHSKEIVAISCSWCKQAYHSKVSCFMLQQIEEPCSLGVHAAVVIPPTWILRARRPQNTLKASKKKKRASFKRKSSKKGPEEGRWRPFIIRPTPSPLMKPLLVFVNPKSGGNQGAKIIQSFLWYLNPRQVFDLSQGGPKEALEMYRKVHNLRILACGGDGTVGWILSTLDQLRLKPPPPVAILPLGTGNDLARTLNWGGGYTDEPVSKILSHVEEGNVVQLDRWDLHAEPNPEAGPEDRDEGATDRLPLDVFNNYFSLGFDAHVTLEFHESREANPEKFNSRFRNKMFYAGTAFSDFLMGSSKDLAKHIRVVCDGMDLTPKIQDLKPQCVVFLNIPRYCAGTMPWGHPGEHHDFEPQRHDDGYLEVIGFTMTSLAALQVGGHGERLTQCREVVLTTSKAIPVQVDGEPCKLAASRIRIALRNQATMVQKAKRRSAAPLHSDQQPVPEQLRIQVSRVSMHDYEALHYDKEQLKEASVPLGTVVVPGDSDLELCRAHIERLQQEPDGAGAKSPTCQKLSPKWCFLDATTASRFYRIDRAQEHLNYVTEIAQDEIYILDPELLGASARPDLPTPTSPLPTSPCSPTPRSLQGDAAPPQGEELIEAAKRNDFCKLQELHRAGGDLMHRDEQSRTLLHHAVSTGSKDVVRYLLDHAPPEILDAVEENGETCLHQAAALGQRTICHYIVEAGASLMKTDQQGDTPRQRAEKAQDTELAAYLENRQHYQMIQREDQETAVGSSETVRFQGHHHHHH

Compound | IC50 (human DGKα [1]) | IC50 (human DGKζ) | EC50 ([2]; Homo sapiens, 24 h) | EC50 (whole blood (pERK)) | IC50 (human DGKα [3]) | EC50 [2]
CC(c1ccc(C(F)(F)F)cc1)N1C[C@H](C)N(c2nc(=O)n(C)c3ccc(Cl)nc23)C[C@H]1CN=[N+]=[N-] (stereo partly drawn) [Example 402, 4-((2S,5S)-5-(Azidomethyl)-2-methyl-4-(1-(4-(trifluoromethyl)phenyl)ethyl)piperazin-1-yl)-6-chloro-1-methylpyrido[3,2-d]pyrimidin-2(1H)-one] | 49.5 µM | 4.76 µM | 1.39 µM | 3.67 µM | – | –
COC(=O)NC[C@@H]1CN(c2nc(=O)n(C)c3ccc(C#N)nc23)[C@@H](C)CN1C(C)c1ccc(C(F)(F)F)cc1 (stereo partly shown) [Example 405] | 13.6 µM | 0.11 µM | 1.19 µM | 2.58 µM | – | –
CC(c1ccc(CN2CCC(F)(F)CC2)cc1)N1C[C@H](C)N(c2nc(=O)n(C)c3ccc(C#N)nc23)C[C@H]1C (stereo partly drawn) [Example 391, 4-((2S,5R)-4-(1-(4-((4,4-difluoropiperidin-1-yl)methyl)phenyl)ethyl)-2,5-dimethylpiperazin-1-yl)-1-methyl-2-oxo-1,2-dihydropyrido[3,2-d]pyrimidine-6-carbonitrile] | – | 1.34 µM | – | 1.13 µM | 2.02 µM | 0.72 µM
CCC(c1ccc(OC(C)C)cc1)N1C[C@H](C)N(c2nc(=O)n(C)c3ccc(C#N)nc23)C[C@H]1CC (stereo partly drawn) [Example 334, 4-((2 S,5R)-5-ethyl-4-(1-(4-isopropoxyphenyl)propyl)-2-methylpiperazin-1-yl)-1-methyl-2-oxo-1,2-dihydropyrido[3,2-d]pyrimidine-6-carbonitrile] | – | 0.53 µM | – | 20 µM | 0.46 µM | 0.73 µM
